Results on 14 compounds are retold here after US20250230171A1 (MOMA Therapeutics, Inc., priority 2023, published 2025).

One assay has as its system DLD1 WT cells. As to the kind of experiment: 7-day cell viability assay (CellTiter-Glo), DLD1 parental (WT). The conditions noted are these: 7-day CellTiter-Glo, n=2. Format: cell-based, human. How it is done:
(§1) Cell lines DLD1 WT and DLD1 BRCA2 (−/−) (Horizon Discovery Cat No. HD PAR-008 and HD-105-007) were plated in 384-well culture plates at seeding densities of 100cells/50 ul/well and 200 cells/50 uL/well respectively. The seeding densities are pre-determined from the growth curve kinetics performed to ensure log linear phase of cell growth for these 2 cell lines. These assay plates are then placed in the incubator at 37° C., 5% CO2, relative humidity >90% for a few hours before addition of test compounds. Compounds are dispensed using the Tecan HPD300 or Echo based on the plate map in the appropriate wells of the 384-well plates. The cells are treated with nine-point dose response with 3-fold serial dilutions of test compounds starting at 10 uM top concentration. After addition of the test compounds, the plates are incubated at 37° C., 5% CO2, relative humidity >90% for 7 days. CellTiter-Glo (Promega Cat. No. G7573), ATP detection reagent is prepared according to manufacturer's specifications. Cell assay plates are removed from incubator and bring to room temperature (RT) by letting them sit at bench top for at least 15 min. Using the MultiDrop liquid handler or a multichannel pipette, 35 μL/well of CTG is added and the plates are then placed shakes for 5 seconds, RT.

The subject of another assay is DLD1 BRCA2 (−/−) cells. As to the kind of experiment: 7-day cell viability assay (CellTiter-Glo), DLD1 BRCA2 (−/−). Format: cell-based, human. Conditions: 7-day CellTiter-Glo, n=2, read-out: Viability IC50 (uM) DLD1 BRCA2 null. How it is done:
as §1
On the technique in general: Cellular ATP, detected with luciferase, serves as a proxy for viable cell number.

Where two headings read alike, the source gives them in different places.

A word on the IC50: it is the concentration at which inhibition is half-maximal. With `COc1cnc(Cl)cc1-c1cc(C)ncc1C(=O)Nc1nc2c(s1)CN(C(=O)c1nc(C)c(C(F)F)cc1Cl)C2`, the IC50 is at least 10 µM in the assay on DLD1 WT cells (Homo sapiens, DLD-1, 168 h) and 0.001 to 0.1 µM in the assay on DLD1 BRCA2 (−/−) cells (Homo sapiens, DLD-1, 168 h).
The matching figures for `COc1cnc(Cl)cc1-c1cc(C)ncc1C(=O)Nc1nc2c(s1)CN(C(=O)c1ncc(C(F)(F)F)c(C)c1C)C2`: at least 10 µM and 0.001 to 0.1 µM.
Turning to `COc1cnc(Cl)cc1-c1cc(C)ncc1C(=O)Nc1nc2c(s1)CN(C(=O)c1cnc(C(F)(F)F)c(C)c1C)C2`, the IC50 was at least 10 µM in the assay with DLD1 WT cells (Homo sapiens, DLD-1, 168 h) and 0.001 to 0.1 µM in the assay on DLD1 BRCA2 (−/−) cells (Homo sapiens, DLD-1, 168 h).
As for “2′-Chloro-5′-methoxy-6-methyl-N-(5-(3-methyl-5-(trifluoromethoxy)picolinoyl)-5,6-dihydro-4H-pyrrolo[3,4-d]thiazol-2-yl)-[4,4′-bipyridine]-3-carboxamide [Example 560]”, the results for the IC50 in the assay with DLD1 WT cells and in the assay with DLD1 BRCA2 (−/−) cells were at least 10 µM and 0.001 to 0.1 µM, respectively.
For “2′-Chloro-5′-methoxy-6-methyl-N-(5-(4-methyl-6-(trifluoromethoxy)nicotinoyl)-5,6-dihydro-4H-pyrrolo[3,4-d]thiazol-2-yl)-[4,4′-bipyridine]-3-carboxamide [Example 561]”, in that order: at least 10 µM and 0.001 to 0.1 µM.
The matching figures for “2′-Chloro-5′-methoxy-6-methyl-N-(5-(6-methyl-5-(trifluoromethoxy)picolinoyl)-5,6-dihydro-4H-pyrrolo[3,4-d]thiazol-2-yl)-[4,4′-bipyridine]-3-carboxamide [Example 555]”: at least 10 µM and 0.001 to 0.1 µM.
For “2′-Chloro-N-(5-(3,5-dimethoxypyrazine-2-carbonyl)-5,6-dihydro-4H-pyrrolo[3,4-d]thiazol-2-yl)-5′-methoxy-6-methyl-[4,4′-bipyridine]-3-carboxamide [Example 413]”, in that order: at least 10 µM and 0.001 to 0.1 µM.
With “2′-Chloro-N-(5-(5,6-dimethylpyrazine-2-carbonyl)-5,6-dihydro-4H-pyrrolo[3,4-d]thiazol-2-yl)-5′-methoxy-6-methyl-[4,4′-bipyridine]-3-carboxamide [Example 410]”, the values for the 50% inhibitory concentration (IC50) with DLD1 WT cells and in the assay with DLD1 BRCA2 (−/−) cells were at least 10 µM and 0.001 to 0.1 µM, respectively.
For “2′-Chloro-N-(5-(5-(difluoromethyl)-3-methoxypyrazine-2-carbonyl)-5,6-dihydro-4H-pyrrolo[3,4-d]thiazol-2-yl)-5′-methoxy-6-methyl-[4,4′-bipyridine]-3-carboxamide [Example 418]”, in that order: 5 to 10 µM and 0.001 to 0.1 µM.
For “2′-Chloro-N-(5-(6-chloro-3-methylpyrazine-2-carbonyl)-5,6-dihydro-4H-pyrrolo[3,4-d]thiazol-2-yl)-5′-methoxy-6-methyl-[4,4′-bipyridine]-3-carboxamide [Example 505]”, in that order: 5 to 10 µM and 0.001 to 0.1 µM.
The matching figures for “2′-chloro-N-(5-(2-(difluoromethyl)pyrimidine-4-carbonyl)-5,6-dihydro-4H-pyrrolo[3,4-d]thiazol-2-yl)-5′-methoxy-6-methyl-[4,4′-bipyridine]-3-carboxamide [Example 641]”: at least 10 µM and 0.001 to 0.1 µM.
Regarding “2′-chloro-N-(5-(3-chloro-5-(1,1-difluoroethyl)picolinoyl)-5,6-dihydro-4H-pyrrolo[3,4-d]thiazol-2-yl)-5′-methoxy-6-methyl-[4,4′-bipyridine]-3-carboxamide [Example 625]”, the 50% inhibitory concentration (IC50) in the assay with DLD1 WT cells is at least 10 µM; in the assay on DLD1 BRCA2 (−/−) cells, 0.1 to 0.25 µM.
With “2′-chloro-N-(5-(4-cyano-1-methyl-1H-pyrazole-5-carbonyl)-5,6-dihydro-4H-pyrrolo[3,4-d]thiazol-2-yl)-5′-methoxy-6-methyl-[4,4′-bipyridine]-3-carboxamide [Example 581]”, the figures for the 50% inhibitory concentration (IC50) in the assay with DLD1 WT cells and in the assay on DLD1 BRCA2 (−/−) cells were at least 10 µM and 0.001 to 0.1 µM, respectively.
The matching figures for “2′-chloro-N-(5-(5-chloro-2-methylisonicotinoyl)-5,6-dihydro-4H-pyrrolo[3,4-d]thiazol-2-yl)-5′-methoxy-6-methyl-[4,4′-bipyridine]-3-carboxamide [Example 519]”: at least 10 µM and 0.001 to 0.1 µM.
